In patent publication US20120264755A1, “PYRIDINYL DERIVATIVES AS INHIBITORS OF ENZYME NICOTINAMIDE PHOSPHORIBOSYLTRANSFERASE” (TopoTarget, priority 2009, published 2012):

Test system: A2780 cells
Test: In vitro cell proliferation assay (WST-1 assay)
Type: cell-based
Conditions: Homo sapiens, total incubation time 72 h, WST-1 readout
Experimental: A2780 cells were seeded in 96-well plates at 3×10^3 cells/well in 100 μL of culture medium, 8 wells were left empty for media only controls.
After 24 h the compound titrations were performed, in a separate dilution plate, by serially diluting the compounds of general formula (I) in culture medium. A 100 μL of each dilution was added to the plated cells, this was done in triplicate, and controls (e.g. DMSO and blanks) were included. The plates were incubated for 24 h at 37° C. in a CO2 incubator. The compound titrations were repeated in a separate dilution plate after 24 h. The media plus compound from the assay plates were then aspirated. A 100 μL of media was then added to all wells, followed by 100 μL of each compound dilution. The plates were incubated for a further 48 h at 37° C. in a CO2 incubator (total incubation time 72 h). The number of viable cells was then assessed using Cell Proliferation Reagent WST-1. 10 μL of WST-1 reagent added to each well and incubated for one to four hours at 37° C. in CO2 incubator. The absorbance was measured (450 nm/690 nm).
The activity of compounds of general formula (I) in reducing the number of viable cells was calculated as:
% activity=[(S^c−B)/(S^o−B)]×100
S^c denotes signal measured in the presence of test compound, S^o denotes signal detected in the absence of compound, and B denotes background signal, measured in blank wells containing medium only. Analyse data using GraphPad Prism.

Compound	IC50 [nM]
O=c1c(NCCCCCCCN(CCF)S(=O)(=O)C2CCCCC2)c(Nc2ccncc2)c1=O [Compound 1099, N-(7-(3,4-dioxo-2-(pyridin-4-ylamino)cyclobut-1-enylamino)heptyl)-N-(2-fluoroethyl)cyclohexanesulfonamide]	0.43
N#C/N=C(\NCCCCCCCCN(CCF)S(=O)(=O)C1CCCCC1)Nc1ccncc1 [Compound 1103]	0.005
N#C/N=C(\NCCCCCCCCNOCC1CCCCC1)Nc1ccncc1 [Compound 1107, 2-cyano-1-(8-(cyclohexylmethoxyamino)octyl)-3-(pyridin-4-yl)guanidine]	0.57
N#C/N=C(\NCCCCCCNOCC1CCCCC1)Nc1ccncc1 [Compound 1110, 2-cyano-1-(8-(cyclohexylmethoxyamino)hexyl)-3-(pyridin-4-yl)guanidine]	0.015
CS(=O)(=O)N(CCCCCCN/C(=N\C#N)Nc1ccncc1)OCC1CCCCC1 [Compound 1112, N-(6-(2-cyano-3-(pyridin-4-yl)guanidino)hexyl)-N-(cyclohexylmethoxy)methanesulfonamide]	0.086
CS(=O)(=O)N(CCCCCCCN/C(=N\C#N)Nc1ccncc1)OCC1CCCCC1 [Compound 1118, N-(7-(2-cyano-3-(pyridin-4-yl)guanidino)heptyl)-N-(cyclohexylmethoxy)methanesulfonamide]	0.046
CS(=O)(=O)N(CCCCCCCCN/C(=N\C#N)Nc1ccncc1)OCC1CCCCC1 [Compound 1124, N-(8-(2-cyano-3-(pyridin-4-yl)guanidino)octyl)-N-(cyclohexylmethoxy)methanesulfonamide]	0.15
CS(=O)(=O)N(CCCCCN/C(=N\C#N)Nc1ccncc1)OCC1CCCCC1 [Compound 1143]	0.081
CCS(=O)(=O)N(CCCCCN/C(=N\C#N)Nc1ccncc1)OCC1CCCCC1 [Compound 1144]	0.037

Further lines, results first:

IC50 [nM]	Compound
0.057	CCNC(=O)N(CCCCCCN/C(=N\C#N)Nc1ccncc1)OCC1CCCCC1 [Compound 1114, 1-(6-(2-cyano-3-(pyridin-4-yl)guanidino)hexyl)-1-(cyclohexylmethoxy)-3-ethylurea]
0.033	CC(C)NC(=O)N(CCCCCCN/C(=N\C#N)Nc1ccncc1)OCC1CCCCC1 [Compound 1115, 1-(6-(2-cyano-3-(pyridin-4-yl)guanidino)hexyl)-1-(cyclohexylmethoxy)-3-isopropylurea]
0.056	CNC(=S)N(CCCCCCN/C(=N\C#N)Nc1ccncc1)OCC1CCCCC1 [Compound 1116, 1-(6-(2-cyano-3-(pyridin-4-yl)guanidino)hexyl)-1-(cyclohexylmethoxy)-3-methylthiourea]
0.057	CCNC(=O)N(CCCCCCCCN/C(=N\C#N)Nc1ccncc1)OCC1CCCCC1 [Compound 1125, 1-(8-(2-cyano-3-(pyridin-4-yl)guanidino)octyl)-N-(cyclohexylmethoxy)-3-ethylurea]
0.059	CCS(=O)(=O)N(CCCCCCN/C(=N\C#N)Nc1ccncc1)OCC1CCCCC1 [Compound 1138, N-(6-(2-cyano-3-(pyridin-4-yl)guanidino)hexyl)-N-(cyclohexylmethoxy)ethane-2-sulfonamide]
